Data on ten molecules can be found in ChEMBL document CHEMBL1201862, “PubChem BioAssay data set” (2004).

SMILES strings stand for the structures.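 Assay format: 96-well plates, 48-hour exposure. GI50: concentration for 50% inhibition of growth.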 The source made the active and inactive calls. Rule as the data show it: active = GI50 up to about 1.1 µM and inactive = higher. A value given as a limit tells only on which side of the number the result lay.

Common to all, as to experiment: NCI-60 cell line screen, 48 h
The subject of test [1] is 786-0.
The test system of test [2] is CCRF-CEM.
Test [3] relates to COLO 205.
In test [4] the test system is HCT-15.
The test system of test [5] is HOP-62.
Test [6] concerns HOP-92.
Test [7] has as its system KM12.
Test [8] concerns MDA-MB-231.
Test [9] deals with NCI-H522.
The test system of test [10] is OVCAR-4.
Test [11] deals with OVCAR-5.
Test [12] concerns RPMI-8226.
The subject of test [13] is SF-268.
Test [14] has as its system SK-MEL-28.
Test [15] relates to SK-MEL-2.
Test [16] concerns SK-OV-3.
Test [17] deals with SN12C.
Test [18] deals with TK-10.
Test [19] deals with U-251.
Test [20] relates to UO-31.

With `C#C[C@]1(O)CC[C@H]2[C@@H]3CCC4=C/C(=N/OC(=O)c5cccc6c(=O)c7ccccc7[nH]c56)CCC4[C@H]3CC[C@@]21CC` (stereo not given in full), the GI50 was 4.91 µM (inactive) in test [1]; 8.05 µM (inactive) in test [2]; 37.2 µM (inactive) in test [3]; 13.4 µM in test [4]; 49.1 µM (inactive) in [5]; 42.6 µM (inactive) in test [6]. The GI50 in [7] is 20.1 µM (inactive); in test [8], 54.8 µM (inactive); in test [9] it was 20.8 µM (inactive); in [10], 49.3 µM (inactive); in [11], > 100 µM (inactive); in test [12] it was 1.37 µM (inactive). Further, the GI50 in test [13] was 66.4 µM (inactive); in [14] it was 22 µM (inactive); in test [15], 32.4 µM (inactive); in test [16], 63.1 µM (inactive); in test [17] it was 39.6 µM (inactive); in [18], > 100 µM (inactive). Also, the GI50 was 9.89 µM (inactive) in [19] and 23.2 µM (inactive) in [20].
With `S=C1N=C(Cl)/C(=C\c2ccccc2)N1`, the GI50 in test [1] was > 100 µM (inactive); in test [2] it was > 31.6 µM (inactive); in test [3] it was > 100 µM (inactive); in test [4] it was over 100 µM; in test [5], > 100 µM (inactive); in test [6], > 100 µM (inactive). Also, the GI50 in test [7] was > 87.7 µM (inactive); in test [8], > 100 µM (inactive); in [9], > 100 µM (inactive); in [10], > 100 µM (inactive); in [11], > 100 µM (inactive); in [12], > 100 µM (inactive). In addition, the GI50 in test [13], in test [14], in test [15], in test [16], in [17] and in [18] was > 100 µM (inactive) in each case. Moreover, the GI50 in [19] and in [20] was > 100 µM (inactive) each time.
For the molecule `Cc1ccc(/N=N/c2ccc(N)cc2C)c(S(N)(=O)=O)c1`, the GI50 in [1] was > 100 µM (inactive); in [2], 48.1 µM (inactive); in test [3], 76.7 µM (inactive); in test [4], 71.4 µM; in [5], > 100 µM (inactive); in test [6] it was 32.1 µM (inactive). Also, the GI50 was > 100 µM (inactive) in [7]; > 100 µM (inactive) in test [8]; 36.4 µM (inactive) in test [9]; > 100 µM (inactive) in test [10]; > 100 µM (inactive) in test [11]; 70.8 µM (inactive) in test [12]. Also, the GI50 in test [13] was > 100 µM (inactive); in test [14], > 100 µM (inactive); in test [15], > 100 µM (inactive); in test [16], > 100 µM (inactive); in test [17], > 100 µM (inactive); in test [18], 48.9 µM (inactive). The GI50 in test [19] was > 100 µM (inactive); in [20] it was 63 µM (inactive).
As to `O=C(CCC1CCCCC1)NCc1ccc(C(=O)O)cc1`, the GI50 in test [1] is > 100 µM (inactive); in test [2], 47.1 µM (inactive); in test [3], > 100 µM (inactive); in [4], over 100 µM; in [5] it was > 100 µM (inactive); in test [6] it was > 100 µM (inactive). Besides, the GI50 in [7], in test [8], in test [9], in [10], in [11] and in test [12] was > 100 µM (inactive) each time. Besides, the GI50 in [13], in test [14], in [15], in test [16], in [17] and in test [18] was > 100 µM (inactive) each time. Moreover, the GI50 in [19] and in test [20] was > 100 µM (inactive) each time.
Turning to `O=C(O)CC(NC(=O)/C(=C/c1ccccc1)NC(=O)c1ccccc1)C(=O)O` (stereo not given), the GI50 in test [1] is > 100 µM (inactive); in test [2] it was > 100 µM (inactive); in [3], > 100 µM (inactive); in [4] it was over 100 µM; in test [5] it was > 100 µM (inactive); in test [6], > 100 µM (inactive). The GI50 in test [7], in test [8], in test [9], in test [10], in [11] and in test [12] was > 100 µM (inactive) throughout. In addition, the GI50 in test [13], in test [14], in test [15], in [16], in [17] and in test [18] was > 100 µM (inactive) each time. In addition, the GI50 in test [19] and in test [20] was > 100 µM (inactive) each time.
With `NS(=O)(=O)c1ccc(/N=N/c2nc3[nH]cnc(=S)c3[nH]2)cc1`, the GI50 in test [1] is 0.507 µM (active); in test [2], 0.0902 µM (active); in test [3], 2.43 µM (inactive); in test [4], 2.09 µM; in [5], 0.564 µM (active); in test [6], 11.1 µM (inactive). Besides, the GI50 in test [7] is 4.1 µM (inactive); in [8], 1.21 µM (inactive); in [9] it was 0.887 µM (active); in test [10], 4.51 µM (inactive); in [11], 0.759 µM (active); in test [12] it was 0.31 µM (active). Moreover, the GI50 in test [13] is 0.885 µM (active); in test [14], 10.6 µM (inactive); in test [15] it was 0.971 µM (active); in [16], 0.411 µM (active); in [17], 1.87 µM (inactive); in [18], 0.474 µM (active). Besides, the GI50 was 6.24 µM (inactive) in test [19] and 0.849 µM (active) in test [20].
As for `C=C1C[C@@H](O)[C@@H](Br)C(C)(C)[C@]12CCC(C)(Cl)C(Br)C2` (stereo not given in full), the GI50 in test [1] was 25.9 µM (inactive); in [2], 41.6 µM (inactive); in test [3], 4.86 µM (inactive); in test [4] it was 35.1 µM; in test [5], 19.1 µM (inactive); in test [6], 24.2 µM (inactive). Moreover, the GI50 in [7] is 0.929 µM (active); in test [8], 40.7 µM (inactive); in test [9], 17.5 µM (inactive); in [10], 21.9 µM (inactive); in test [11] it was 0.736 µM (active); in [12], 34 µM (inactive). Besides, the GI50 was 32 µM (inactive) in test [13]; 55.7 µM (inactive) in test [14]; 15.1 µM (inactive) in test [15]; 57.3 µM (inactive) in [16]; 18.8 µM (inactive) in test [17]; 1.58 µM (inactive) in test [18]. The GI50 is 24.4 µM (inactive) in test [19] and 59 µM (inactive) in [20].
`CC(=O)O[C@H]1C(=O)[C@@]2(C)[C@H]([C@H](OC(=O)c3ccccc3)[C@]3(O)C[C@H](OC(=O)[C@H](O)[C@@H](NC(=O)OC(C)(C)C)c4ccco4)C(C)=C1C3(C)C)[C@]1(OC(C)=O)CO[C@@H]1C[C@@H]2O`: the GI50 was 0.00614 µM (active) in test [1]; < 0.005 µM (active) in [2]; < 0.005 µM (active) in test [3]; 0.00948 µM in test [4]; 0.00804 µM (active) in [5]; 7.23 µM (inactive) in test [6]. Further, the GI50 in [7] was < 0.005 µM (active); in test [8], < 0.005 µM (active); in test [9], < 0.005 µM (active); in test [10] it was 4.18 µM (inactive); in [11], 0.00724 µM (active); in test [12] it was < 0.005 µM (active). Further, the GI50 in [13] is < 0.005 µM (active); in [14] it was 0.205 µM (active); in test [15], 0.00723 µM (active); in [16], < 0.005 µM (active); in [17] it was < 0.005 µM (active); in test [18] it was 0.0116 µM (active). For the same molecule, the GI50 was 0.00661 µM (active) in test [19] and 0.0105 µM (active) in [20].
On to `CCOC(=O)N/N=C(/OCC)c1ccccc1`, for which the GI50 was > 100 µM (inactive) in [1]; > 100 µM (inactive) in [2]; > 100 µM (inactive) in [3]; over 100 µM in test [4]; > 100 µM (inactive) in test [5]; > 100 µM (inactive) in test [6]. In addition, the GI50 in test [7], in test [8], in test [9], in [10], in [11] and in [12] was > 100 µM (inactive) in each case. Besides, the GI50 in test [13], in test [14], in [15], in [16], in [17] and in test [18] was > 100 µM (inactive) each time. The GI50 in test [19] and in test [20] was > 100 µM (inactive) each time.
As for `CN(C)C(=S)N1C(=S)N(c2ccccc2)C(=N/c2ccccc2)/C1=N\c1ccccc1`, the GI50 is > 100 µM (inactive) in [1]; > 100 µM (inactive) in test [2]; > 100 µM (inactive) in test [3]; over 100 µM in test [4]; > 100 µM (inactive) in test [5]; > 100 µM (inactive) in [6]. The GI50 was > 100 µM (inactive) in test [7]; > 100 µM (inactive) in test [8]; 6.82 µM (inactive) in [9]; > 100 µM (inactive) in [10]; > 100 µM (inactive) in test [11]; > 100 µM (inactive) in test [12]. Further, the GI50 in test [13], in [14], in test [15], in test [16], in test [17] and in test [18] was > 100 µM (inactive) in each case. The GI50 in test [19] and in test [20] was > 100 µM (inactive) throughout.
